Reference: patent US11590134B2, “Aminopyrimidine amide autophagy inhibitors and methods of use thereof” (Deciphera Pharmaceuticals, LLC, priority 2019, dated 2023)

Tests used:
ULK1 kinase [1] = target: T1, ULK1 kinase (Homo sapiens, UniProt O75385); assay: Biochemical assay for ULK1.2 (coupled pyruvate kinase/lactate dehydrogenase assay); settings: 19 nM ULK1 (residues 1-314), myelin basic protein substrate, 1 mM ATP
T1 construct: purchased Eurofins 14-959
T1 sequence (O75385 with tags, fused parts or gaps): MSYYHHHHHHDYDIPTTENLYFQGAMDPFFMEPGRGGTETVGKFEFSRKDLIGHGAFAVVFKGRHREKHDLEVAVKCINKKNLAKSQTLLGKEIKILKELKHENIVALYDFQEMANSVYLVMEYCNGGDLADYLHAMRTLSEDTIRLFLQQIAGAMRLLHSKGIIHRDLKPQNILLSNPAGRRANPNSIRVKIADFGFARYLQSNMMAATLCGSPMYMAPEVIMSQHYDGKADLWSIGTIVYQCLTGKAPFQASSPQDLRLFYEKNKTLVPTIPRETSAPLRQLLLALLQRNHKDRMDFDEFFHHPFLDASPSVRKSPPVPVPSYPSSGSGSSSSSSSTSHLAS

ULK2 kinase = target: T2, ULK2 kinase (Homo sapiens, UniProt Q8IYT8); assay: Biochemical assay for ULK2 (coupled pyruvate kinase/lactate dehydrogenase assay); settings: 9.7 nM ULK2 (residues 1-306), myelin basic protein substrate, 1 mM ATP; read-out: ULK2.2
T2 construct: purchased Eurofins 14-772

ULK1 kinase [2] = target: T3, ULK1 kinase (Homo sapiens, UniProt O75385, E37A/K38A); assay: Biochemical assay for ULK1.3 (coupled pyruvate kinase/lactate dehydrogenase assay); settings: 0.1 nM ULK1 (residues 1-283), peptide substrate, 1 mM ATP
T3 construct: (residues 1-283; ID NO: 2); purchased Beryllium
T3 sequence (O75385 1-283 E37A/K38A): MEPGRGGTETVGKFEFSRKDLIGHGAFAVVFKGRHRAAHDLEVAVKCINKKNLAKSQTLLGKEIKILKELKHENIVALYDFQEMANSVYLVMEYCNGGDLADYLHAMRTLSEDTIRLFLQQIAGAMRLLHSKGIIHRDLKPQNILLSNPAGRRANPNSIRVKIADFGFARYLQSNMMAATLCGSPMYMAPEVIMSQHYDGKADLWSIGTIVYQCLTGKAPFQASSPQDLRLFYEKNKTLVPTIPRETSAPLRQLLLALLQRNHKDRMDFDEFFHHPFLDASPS
Description: Activity of ULK1 kinase was determined spectroscopically using a coupled pyruvate kinase/lactate dehydrogenase assay that continuously monitors the ATP hydrolysis-dependent oxidation of NADH (e.g., Schindler et al. Science (2000) 289: 1938-1942). Assays were conducted in 384-well plates (100 uL final volume) using 0.1 nM ULK1 (from Beryllium), 0.075 mM peptide substrate (YANWLAASIYLDGKKK (SEQ ID NO: 5)), 1.5 units pyruvate kinase, 2.1 units lactate dehydrogenase, 1 mM phosphoenol pyruvate, 0.28 mM NADH and 1 mM ATP in assay buffer (100 mM Tris, pH 7.5, 15 mM MgCl2, 0.5 mM DTT, 0.004% (w/v) BSA, and 0.004% Triton X-100). Inhibition of ULK1 was measured by adding serial diluted test compound (final assay concentration of 1% DMSO). A decrease in absorption at 340 nm was monitored continuously for 6 hours at 30° C. on a multi-mode microplate reader (BioTek). The reaction rate was calculated using the 2-3 h time frame. The reaction rate at each concentration of compound was converted to percent inhibition using controls (i.e. reaction with no test compound and reaction with a known inhibitor) and IC50 values were calculated using software routines in Prism (GraphPad software).

T2 sequence (Q8IYT8 with tags, fused parts or gaps): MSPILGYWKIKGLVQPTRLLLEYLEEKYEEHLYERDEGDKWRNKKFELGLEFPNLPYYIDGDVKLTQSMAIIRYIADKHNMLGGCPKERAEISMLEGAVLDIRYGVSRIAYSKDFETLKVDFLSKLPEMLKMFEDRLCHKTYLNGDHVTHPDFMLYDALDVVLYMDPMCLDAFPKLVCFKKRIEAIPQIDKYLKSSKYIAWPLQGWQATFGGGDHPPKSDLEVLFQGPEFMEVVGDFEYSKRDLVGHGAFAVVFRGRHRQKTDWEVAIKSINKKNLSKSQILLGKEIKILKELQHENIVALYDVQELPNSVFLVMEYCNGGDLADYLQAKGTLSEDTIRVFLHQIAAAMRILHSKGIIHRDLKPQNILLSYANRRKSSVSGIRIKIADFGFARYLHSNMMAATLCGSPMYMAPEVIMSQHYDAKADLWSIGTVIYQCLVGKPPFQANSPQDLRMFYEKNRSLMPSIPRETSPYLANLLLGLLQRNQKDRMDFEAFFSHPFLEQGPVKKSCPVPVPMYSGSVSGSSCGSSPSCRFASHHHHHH

SMILES | IC50 (ULK1 kinase [1]) | IC50 (ULK2 kinase) | IC50 (ULK1 kinase [2])
Cc1cc(N2CCN(C)CC2)ccc1Nc1ncc(C(F)(F)F)c(NCCCNC(=O)C(C)(C)C)n1 [Example 12] | 25 to 100 nM | 100 to 500 nM | –
CC(C)c1cc(N2CCN(C)CC2)ccc1Nc1ncc(Br)c(NCCCNC(=O)C2CCC2)n1 [Example 8] | – | 100 to 500 nM | 25 to 100 nM
COc1cc(N2CCN(C)CC2)ccc1Nc1ncc(C(F)(F)F)c(NCCCNC(=O)C2CCC2)n1 [Example 4] | – | 25 to 100 nM | 25 to 100 nM

Continued, values first:

IC50 (ULK1 kinase [1]) | IC50 (ULK2 kinase) | IC50 (ULK1 kinase [2]) | SMILES
– | 25 to 100 nM | 1 to 25 nM | CC(C)c1cc(N2CCN(C)CC2)ccc1Nc1ncc(C(F)(F)F)c(NCCCNC(=O)C2CCC2)n1 [Example 3]
– | 1 to 25 nM | 1 to 25 nM | CN1CCN(c2ccc(Nc3ncc(C(F)(F)F)c(NCCCNC(=O)C4CCC4)n3)c(C3CC3)c2)CC1 [Example 14]
